Experimental data from US4672066A, “Derivatives of 4-acetyl-3-hydroxy-2-alkyl-phenoxycarboxylic acids” (Hoffmann-La Roche Inc., priority 1985, dated 1987).
pIC50: −log10 of the molar value. Like-named read-outs stand apart in the source and are kept apart here. One block for each molecule: values may come before it.

How the values were obtained:
TXA2 synthase = target: T1, TXA2 synthase (Homo sapiens, UniProt P24557); assay: Thromboxane Synthase Inhibition, In Vitro; format: biochemical; conditions: at 1 μM (value in parentheses), human platelet microsomes
T1 construct: microsomal fractions from human platelets as enzyme source; from tissue; host or cells: microsomal fraction of human platelets
T1 sequence (P24557 1-533): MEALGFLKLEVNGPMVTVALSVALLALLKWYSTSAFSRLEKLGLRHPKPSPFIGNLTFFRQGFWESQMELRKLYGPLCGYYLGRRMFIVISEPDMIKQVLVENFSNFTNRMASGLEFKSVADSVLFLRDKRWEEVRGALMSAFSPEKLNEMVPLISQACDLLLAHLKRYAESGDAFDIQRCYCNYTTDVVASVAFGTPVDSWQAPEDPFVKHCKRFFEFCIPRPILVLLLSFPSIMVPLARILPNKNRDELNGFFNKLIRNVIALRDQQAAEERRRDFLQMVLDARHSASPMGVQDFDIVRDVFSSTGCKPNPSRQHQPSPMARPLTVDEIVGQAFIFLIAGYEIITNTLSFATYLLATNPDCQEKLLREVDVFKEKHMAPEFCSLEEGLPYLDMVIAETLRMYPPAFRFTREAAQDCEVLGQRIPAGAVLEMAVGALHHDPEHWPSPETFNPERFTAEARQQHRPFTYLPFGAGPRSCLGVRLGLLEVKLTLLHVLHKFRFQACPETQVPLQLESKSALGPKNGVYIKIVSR
Procedure: TXA2 synthase activity is measured by following the conversion of ^14 C-prostaglandin endoperoxide (PGH2) to ^14 C-thromboxane A2 (TXA2) using microsomal fractions from human platelets as enzyme source. In the aqueous incubation medium, the TXA2 decomposes rapidly into TXB2. The amount of TXA2 synthase is adjusted so that under the conditions of the assay approximately 80-90% of the substrate, PGH2, is converted to product in control tubes. To prepare ^14 C-PGH2, ^14 C-AA (50-60 mCi/mmole; Rose Chem.) is incubated with sheep seminal vesicular gland microsomes for 1.5 minutes at 37° C. and then the ^14 C-PGH2 is extracted with diethylether, purified on columns of Sephadex LH-20 or silicic acid, and stored in acetone at -70° C. Incubations are done as follows. Sufficient ^14 C-PGH2 yield a final substrate concentration of 10 μM (~30,000 cpm) is added to the incubation tubes and then the acetone is removed under nitrogen. […] The tubes are incubated at 22° C. for 2 minutes, the reaction is stopped and then the radioactive products and the unconverted PGH2 are extracted and analyzed by thin layer chromatography. […] The amount of ^14 C-PGH2 converted to products was used as a measure of TXA2 synthase activity. Inhibitors were tested initially at a final concentration of 100 μM. Results obtained with representative compounds of the present invention in this assay are summarized hereafter in Table I, II and III.

PAF = target: T2, PAF (Canis lupus familiaris, UniProt A0A8I3NSH0); assay: PAF Radioreceptor Binding Assay; conditions: dog platelets, 3H-PAF
T2 construct: followed by 2×10^7 dog platelets; from tissue; host or cells: washed platelets from citrate-treated dog blood
T2 sequence (A0A8I3NSH0 1-343): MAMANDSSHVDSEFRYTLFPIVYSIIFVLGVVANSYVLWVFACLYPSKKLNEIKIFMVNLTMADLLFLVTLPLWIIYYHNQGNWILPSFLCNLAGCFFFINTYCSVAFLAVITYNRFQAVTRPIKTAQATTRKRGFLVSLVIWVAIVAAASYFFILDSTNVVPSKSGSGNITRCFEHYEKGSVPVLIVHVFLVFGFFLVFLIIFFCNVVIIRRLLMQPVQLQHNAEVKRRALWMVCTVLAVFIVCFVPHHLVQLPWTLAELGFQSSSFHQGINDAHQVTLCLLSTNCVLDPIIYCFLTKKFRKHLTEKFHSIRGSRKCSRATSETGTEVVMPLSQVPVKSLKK
Procedure: Platelet rich plasma is prepared by centrifugation of citrate-treated dog blood. Acidification to pH 6.5 with 0.15 M citric acid and centrifugation for 10 minutes at 1000 xg yields a platelet pellet which is then washed by resuspension in EDTA-Phosphate Buffered Saline (PBS) and recentrifuged. The washed platelet preparation is adjusted to 2×10^7 platelets/50 μl in 0.1% BSA-PBS. […] After mixing, incubating for 10 minutes at room temperature, and centrifuging for 1 minute in a Beckman Microfuge B (8000 xg), the pellet is removed by clipping off the tip of the tube, the platelets are solubilized with 200 μl of 50% methanol, and counted in 10 ml of Aquasol. […] Results obtained with representative compounds of the present invention in this assay are summarized hereinafter in Tables I, II and III.

[1] = Table I, read-out: TXA2 Syn. Inhib. (1μM)
[2] = Table II, read-out: TXA2 Synth. Inhib. % at (1μM)
[3] = Table III, read-out: TXA2 Synth. Inhib. % at (1 μM)

Structure (SMILES): CCCc1c(OCCC(=O)NCCCCc2cccnc2)ccc(C(C)=O)c1O [Example 6, 3-(4-Acetyl-3-hydroxy-2-propylphenoxy)-N-[4-(3-pyridinyl)butyl]propanamide]
- inhibition at 1 µM (TXA2 synthase; [1]): 77%
- pIC50 (PAF; Table I): 6.00

Structure (SMILES): CCCc1c(OCCCC(=O)NCCc2cccnc2)ccc(C(C)=O)c1O [Example 13, 4-(4-Acetyl-3-hydroxy-2-propylphenoxy)-N-[2-(3-pyridinyl)ethyl]butanamide]
- inhibition at 1 µM (TXA2 synthase; [1]): 8%
- pIC50 (PAF; Table I): 6.40

Structure (SMILES): CCCc1c(OCC(C)CC(=O)NC(C)CCCc2cccnc2)ccc(C(C)=O)c1O (stereo not shown) [Example 26, 4-(4-Acetyl-3-hydroxy-2-propylphenoxy)-3-methyl-N-[1-methyl-4-(3-pyridinyl)butyl]-butanamide]
- inhibition at 1 µM (TXA2 synthase; [3]): 78%
- pIC50 (PAF; Table III): 6.00

Structure (SMILES): CCCc1c(OCCC(C)C(=O)NCCCCc2cccnc2)ccc(C(C)=O)c1O (stereo not shown) [Example 22, 4-(4-Acetyl-3-hydroxy-2-propylphenoxy)-2-methyl-N-[4-(3-pyridinyl)butyl]butanamide]
- inhibition at 1 µM (TXA2 synthase; [3]): 70%
- pIC50 (PAF; Table III): 6.00

Structure (SMILES): CCCc1c(OCCCCC(=O)NCCCCc2cccnc2)ccc(C(C)=O)c1O [Example 1]
- pIC50 (PAF; Table I): 6.00

Structure (SMILES): CCCc1c(OCCCCCC(=O)NCCCCc2ccccn2)ccc(C(C)=O)c1O
- inhibition at 1 µM (TXA2 synthase; [2]): 0%
- pIC50 (PAF; Table II): 6.00

Structure (SMILES): CCCc1c(OCCCC#CC(=O)NCCCCc2cccnc2)ccc(C(C)=O)c1O [drawing 36]
- inhibition at 1 µM (TXA2 synthase; [2]): 88%
- pIC50 (PAF; Table II): 6.30

Structure (SMILES): CCCc1c(OCCCNC(=O)NCCCCc2cccnc2)ccc(C(C)=O)c1O [Example 30, N-[3-(4-acetyl-3-hydroxy-2-propylphenoxy)-propyl]-N'-[4-(3-pyridinyl)butyl]urea]
- inhibition at 1 µM (TXA2 synthase; [3]): 93%
- pIC50 (PAF; Table III): 6.15

Structure (SMILES): CCCc1c(OCCCCCCCC(=O)NCCCCc2cccnc2)ccc(C(C)=O)c1O [Example 2, 8-(4-Acetyl-3-hydroxy-2-propylphenoxy)-N-[4-(3-pyridinyl)butyl]octanamide]
- pIC50 (PAF; Table I): 6.00

Further lines, results first:

- inhibition at 1 µM (TXA2 synthase; [1]): 83%
- pIC50 (PAF; Table I): 6.00
Structure (SMILES): CCCc1c(OCCCC(=O)NCCCCCCc2cccnc2)ccc(C(C)=O)c1O [Example 11, 4-(4-Acetyl-3-hydroxy-2-propylphenoxy)-N-[6-(3-pyridinyl)hexyl]butanamide]

- inhibition at 1 µM (TXA2 synthase; [2]): 93%
- pIC50 (PAF; Table II): 6.00
Structure (SMILES): CCCc1c(OCCCCCC(=O)NCCCCOc2cccnc2)ccc(C(C)=O)c1O

- inhibition at 1 µM (TXA2 synthase; [2]): 87%
- pIC50 (PAF; Table II): 6.00
Structure (SMILES): CCCc1c(OCCCCCC(=O)NCCCCn2ccnc2)ccc(C(C)=O)c1O

- inhibition at 1 µM (TXA2 synthase; [1]): 90%
- pIC50 (PAF; Table I): 6.00
Structure (SMILES): CCCc1c(OCCCCCC(=O)NCCCCCCc2cccnc2)ccc(C(C)=O)c1O [Example 8, 6-(4-Acetyl-3-hydroxy-2-propylphenoxy)-N-[6-(3-pyridinyl)hexyl]hexanamide]

- inhibition at 1 µM (TXA2 synthase; [1]): 51%
- pIC50 (PAF; Table I): 5.82
Structure (SMILES): CCCc1c(OCCCC(=O)NCCCc2cccnc2)ccc(C(C)=O)c1O [Example 12, 4-(4-Acetyl-3-hydroxy-2-propylphenoxy)-N-[3-(3-pyridinyl)propyl]butanamide]

- inhibition at 1 µM (TXA2 synthase; [3]): 55%
- pIC50 (PAF; Table III): 6.00
Structure (SMILES): CCCc1c(OCCC(C)(C)C(=O)NCCCCc2cccnc2)ccc(C(C)=O)c1O [Example 24, 4-(4-Acetyl-3-hydroxy-2-propylphenoxy)-2,2-dimethyl-N-[4-(3-pyridinyl)butyl]butanamide]

- inhibition at 1 µM (TXA2 synthase; [3]): 77%
- pIC50 (PAF; Table III): 6.52
Structure (SMILES): CCCc1c(OCCCC(=O)NC(C)CCCc2cccnc2)ccc(C(C)=O)c1O (stereo not shown) [Example 27, 4-(4-Acetyl-3-hydroxy-2-propylphenoxy)-N-[1-methyl-4-(3-pyridinyl)butyl]butanamide]

- inhibition at 1 µM (TXA2 synthase; [2]): 0%
- pIC50 (PAF; Table II): 5.76
Structure (SMILES): CCCc1c(OCCCCCC(=O)NCCc2ccncc2)ccc(C(C)=O)c1O

- inhibition at 1 µM (TXA2 synthase; [1]): 78%
- pIC50 (PAF; Table I): 5.70
Structure (SMILES): CCCc1c(OCCCCCC(=O)NCCCc2cccnc2)ccc(C(C)=O)c1O [Example 9, 6-(4-Acetyl-3-hydroxy-2-propylphenoxy)-N-[3-(3-pyridinyl)propyl]hexanamide]
